# Test results from paper PMC6199309, “A therapeutic approach to pantothenate kinase associated neurodegeneration” (Nature Communications, 2018).
# Key:
# Assay type in all cases: binding
# DMPK = target: T1, DMPK (Homo sapiens, UniProt Q09013); assay: KINOMEscan; details: read-out: %Ctrl @ 10000nM
# T1 construct: purchased DiscoverX KINOMEscan
# CSF1R-autoinhibited = target: T2, CSF1R-autoinhibited (Homo sapiens, UniProt P07333); assay: KINOMEscan; details: read-out: %Ctrl @ 10000nM
# T2 construct: purchased DiscoverX KINOMEscan
# MAP3K15 = target: T3, MAP3K15 (Homo sapiens, UniProt Q6ZN16); assay: KINOMEscan; details: read-out: %Ctrl @ 10000nM
# T3 construct: purchased DiscoverX KINOMEscan
# PLK4 = target: T4, PLK4 (Homo sapiens, UniProt O00444); assay: KINOMEscan; details: read-out: %Ctrl @ 10000nM
# T4 construct: purchased DiscoverX KINOMEscan
# GRK3 = target: T5, GRK3 (Homo sapiens, UniProt P35626); assay: KINOMEscan KdELECT
# T5 construct: DNA tag for qPCR (T7 phage fusion or DNA label); purchased DiscoverX KdELECT; host or cells: E. coli BL21-derived (T7 phage) or HEK-293
# BRSK2 = target: T6, BRSK2 (Homo sapiens, UniProt Q8IWQ3); assay: KINOMEscan; details: read-out: %Ctrl @ 10000nM
# T6 construct: purchased DiscoverX KINOMEscan
# CLK3 = target: T7, CLK3 (Homo sapiens, UniProt P49761); assay: KINOMEscan; details: read-out: %Ctrl @ 10000nM
# T7 construct: purchased DiscoverX KINOMEscan
# TYRO3 = target: T8, TYRO3 (Homo sapiens, UniProt Q06418); assay: KINOMEscan; details: read-out: %Ctrl @ 10000nM
# T8 construct: DNA label for qPCR (T7 phage fusion or DNA tag); purchased DiscoverX scanMAX; host or cells: E. coli BL21-derived (T7 phage) or HEK-293
# NEK11 = target: T9, NEK11 (Homo sapiens, UniProt Q8NG66); assay: KINOMEscan; details: read-out: %Ctrl @ 10000nM
# T9 construct: purchased DiscoverX KINOMEscan
# [1] = target: T10, RSK2(Kin.Dom.2-C-terminal) (Homo sapiens, UniProt P51812); assay: KINOMEscan; details: read-out: %Ctrl @ 10000nM
# T10 construct: RSK2(Kin.Dom.2-C-terminal); purchased DiscoverX KINOMEscan
# AAK1 = target: T11, AAK1 (Homo sapiens, UniProt Q2M2I8); assay: KINOMEscan; details: read-out: %Ctrl @ 10000nM
# T11 construct: purchased DiscoverX KINOMEscan
# TBK1 = target: T12, TBK1 (Homo sapiens, UniProt Q9UHD2); assay: KINOMEscan; details: read-out: %Ctrl @ 10000nM
# T12 construct: purchased DiscoverX KINOMEscan
# PIK3CA(H1047Y) = target: T13, PIK3CA(H1047Y) (Homo sapiens, UniProt P42336, H1047Y); assay: KINOMEscan; details: read-out: %Ctrl @ 10000nM
# T13 construct: purchased DiscoverX KINOMEscan
# TRKA = target: T14, TRKA (Homo sapiens, UniProt P04629); assay: KINOMEscan; details: read-out: %Ctrl @ 10000nM
# T14 construct: purchased DiscoverX KINOMEscan
# FLT3(K663Q) = target: T15, FLT3(K663Q) (Homo sapiens, UniProt P36888, K663Q); assay: KINOMEscan; details: read-out: %Ctrl @ 10000nM
# T15 construct: purchased DiscoverX KINOMEscan
# FGFR2 = target: T16, FGFR2 (Homo sapiens, UniProt P21802); assay: KINOMEscan; details: read-out: %Ctrl @ 10000nM
# T16 construct: purchased DiscoverX KINOMEscan
# EPHA8 = target: T17, EPHA8 (Homo sapiens, UniProt P29322); assay: KINOMEscan; details: read-out: %Ctrl @ 10000nM
# T17 construct: purchased DiscoverX KINOMEscan
# FLT1 = target: T18, FLT1 (Homo sapiens, UniProt P17948); assay: KINOMEscan; details: read-out: %Ctrl @ 10000nM
# T18 construct: purchased DiscoverX KINOMEscan
# NEK9 = target: T19, NEK9 (Homo sapiens, UniProt Q8TD19); assay: KINOMEscan; details: read-out: %Ctrl @ 10000nM
# T19 construct: purchased DiscoverX KINOMEscan
# MST3 = target: T20, MST3 (Homo sapiens, UniProt Q9Y6E0); assay: KINOMEscan; details: read-out: %Ctrl @ 10000nM
# T20 construct: purchased DiscoverX KINOMEscan
# IKK-epsilon = target: T21, IKK-epsilon (Homo sapiens, UniProt Q14164); assay: KINOMEscan; details: read-out: %Ctrl @ 10000nM
# T21 construct: purchased DiscoverX KINOMEscan
# KIT(D816V) = target: T22, KIT(D816V) (Homo sapiens, UniProt P10721, D816V); assay: KINOMEscan; details: read-out: %Ctrl @ 10000nM
# T22 construct: purchased DiscoverX KINOMEscan
# DAPK2 = target: T23, DAPK2 (Homo sapiens, UniProt Q9UIK4); assay: KINOMEscan; details: read-out: %Ctrl @ 10000nM
# T23 construct: purchased DiscoverX KINOMEscan
# EPHA1 = target: T24, EPHA1 (Homo sapiens, UniProt P21709); assay: KINOMEscan; details: read-out: %Ctrl @ 10000nM
# T24 construct: purchased DiscoverX KINOMEscan
# CAMK1D = target: T25, CAMK1D (Homo sapiens, UniProt Q8IU85); assay: KINOMEscan; details: read-out: %Ctrl @ 10000nM
# T25 construct: purchased DiscoverX KINOMEscan
# TRKB = target: T26, TRKB (Homo sapiens, UniProt Q16620); assay: KINOMEscan; details: read-out: %Ctrl @ 10000nM
# T26 construct: purchased DiscoverX KINOMEscan
# PIK3CB = target: T27, PIK3CB (Homo sapiens, UniProt P42338); assay: KINOMEscan; details: read-out: %Ctrl @ 10000nM
# T27 construct: purchased DiscoverX KINOMEscan
# IRAK3 = target: T28, IRAK3 (Homo sapiens, UniProt Q9Y616); assay: KINOMEscan; details: read-out: %Ctrl @ 10000nM
# T28 construct: purchased DiscoverX KINOMEscan
# SgK110 = target: T29, SgK110 (Homo sapiens, UniProt P0C264); assay: KINOMEscan; details: read-out: %Ctrl @ 10000nM
# T29 construct: purchased DiscoverX KINOMEscan
# MAP3K2 = target: T30, MAP3K2 (Homo sapiens, UniProt Q9Y2U5); assay: KINOMEscan; details: read-out: %Ctrl @ 10000nM
# T30 construct: purchased DiscoverX KINOMEscan
# KIT(V559D) = target: T31, KIT(V559D) (Homo sapiens, UniProt P10721, V559D); assay: KINOMEscan; details: read-out: %Ctrl @ 10000nM
# T31 construct: purchased DiscoverX KINOMEscan
# TAK1 = target: T32, TAK1 (Homo sapiens, UniProt O43318); assay: KINOMEscan; details: read-out: %Ctrl @ 10000nM
# T32 construct: purchased DiscoverX KINOMEscan
# PKN2 = target: T33, PKN2 (Homo sapiens, UniProt Q16513); assay: KINOMEscan; details: read-out: %Ctrl @ 10000nM
# T33 construct: purchased DiscoverX KINOMEscan
# MINK = target: T34, MINK (Homo sapiens, UniProt Q8N4C8); assay: KINOMEscan; details: read-out: %Ctrl @ 10000nM
# T34 construct: purchased DiscoverX KINOMEscan
# PIK3CA(C420R) = target: T35, PIK3CA(C420R) (Homo sapiens, UniProt P42336, C420R); assay: KINOMEscan; details: read-out: %Ctrl @ 10000nM
# T35 construct: purchased DiscoverX KINOMEscan
# GSK3A = target: T36, GSK3A (Homo sapiens, UniProt P49840); assay: KINOMEscan; details: read-out: %Ctrl @ 10000nM
# T36 construct: purchased DiscoverX KINOMEscan
# AURKB = target: T37, AURKB (Homo sapiens, UniProt Q96GD4); assay: KINOMEscan; details: read-out: %Ctrl @ 10000nM
# T37 construct: purchased DiscoverX KINOMEscan
# SNRK = target: T38, SNRK (Homo sapiens, UniProt Q9NRH2); assay: KINOMEscan; details: read-out: %Ctrl @ 10000nM
# T38 construct: purchased DiscoverX KINOMEscan
# CAMK4 = target: T39, CAMK4 (Homo sapiens, UniProt Q16566); assay: KINOMEscan; details: read-out: %Ctrl @ 10000nM
# T39 construct: purchased DiscoverX KINOMEscan
# LZK = target: T40, LZK (Homo sapiens, UniProt O43283); assay: KINOMEscan; details: read-out: %Ctrl @ 10000nM
# T40 construct: purchased DiscoverX KINOMEscan
# TLK1 = target: T41, TLK1 (Homo sapiens, UniProt Q9UKI8); assay: KINOMEscan; details: read-out: %Ctrl @ 10000nM
# T41 construct: purchased DiscoverX KINOMEscan
# T9 sequence (Q8NG66 whole entry): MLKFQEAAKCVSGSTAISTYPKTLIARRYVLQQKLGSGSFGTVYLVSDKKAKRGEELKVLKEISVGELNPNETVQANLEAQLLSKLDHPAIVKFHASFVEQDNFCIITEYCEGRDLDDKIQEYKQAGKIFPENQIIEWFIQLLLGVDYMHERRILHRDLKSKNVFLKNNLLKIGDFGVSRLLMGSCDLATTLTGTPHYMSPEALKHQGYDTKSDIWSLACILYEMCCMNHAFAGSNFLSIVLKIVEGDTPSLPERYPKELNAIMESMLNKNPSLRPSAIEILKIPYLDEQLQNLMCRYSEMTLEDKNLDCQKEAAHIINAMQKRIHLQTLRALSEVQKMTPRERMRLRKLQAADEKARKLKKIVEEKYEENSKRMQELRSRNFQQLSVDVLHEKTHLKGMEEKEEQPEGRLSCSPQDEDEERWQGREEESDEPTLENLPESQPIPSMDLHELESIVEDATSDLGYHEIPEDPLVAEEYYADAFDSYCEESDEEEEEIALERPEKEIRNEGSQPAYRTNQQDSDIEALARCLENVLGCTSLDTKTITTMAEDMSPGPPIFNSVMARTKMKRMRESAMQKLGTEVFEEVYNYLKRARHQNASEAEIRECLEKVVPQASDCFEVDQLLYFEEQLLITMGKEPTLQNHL
# T19 sequence (Q8TD19 whole entry): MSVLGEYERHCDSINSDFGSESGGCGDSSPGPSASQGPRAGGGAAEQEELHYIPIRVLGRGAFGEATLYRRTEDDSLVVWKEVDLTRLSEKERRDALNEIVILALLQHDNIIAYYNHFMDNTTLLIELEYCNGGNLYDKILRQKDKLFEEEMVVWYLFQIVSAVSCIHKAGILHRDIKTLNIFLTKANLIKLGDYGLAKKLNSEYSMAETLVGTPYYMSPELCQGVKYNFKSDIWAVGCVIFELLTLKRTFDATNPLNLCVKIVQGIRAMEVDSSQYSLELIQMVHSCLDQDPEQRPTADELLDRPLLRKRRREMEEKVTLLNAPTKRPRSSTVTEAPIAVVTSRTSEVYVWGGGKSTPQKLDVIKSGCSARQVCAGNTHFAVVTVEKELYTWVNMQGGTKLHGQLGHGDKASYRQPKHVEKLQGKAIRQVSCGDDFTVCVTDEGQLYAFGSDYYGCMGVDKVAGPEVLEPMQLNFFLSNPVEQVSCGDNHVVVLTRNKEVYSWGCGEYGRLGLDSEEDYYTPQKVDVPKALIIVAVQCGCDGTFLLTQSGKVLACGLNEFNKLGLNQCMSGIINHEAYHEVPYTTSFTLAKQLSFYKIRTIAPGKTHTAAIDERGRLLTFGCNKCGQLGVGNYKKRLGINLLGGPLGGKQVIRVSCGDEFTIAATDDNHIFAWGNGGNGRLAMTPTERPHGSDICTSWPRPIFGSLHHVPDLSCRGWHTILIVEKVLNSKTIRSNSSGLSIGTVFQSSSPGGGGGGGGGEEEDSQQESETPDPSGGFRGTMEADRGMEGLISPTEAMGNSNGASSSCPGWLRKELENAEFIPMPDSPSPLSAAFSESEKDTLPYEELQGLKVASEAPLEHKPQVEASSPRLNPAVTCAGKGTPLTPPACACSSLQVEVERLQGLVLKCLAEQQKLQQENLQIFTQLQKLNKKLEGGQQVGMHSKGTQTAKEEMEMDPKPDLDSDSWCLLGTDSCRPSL
# T36 sequence (P49840 whole entry): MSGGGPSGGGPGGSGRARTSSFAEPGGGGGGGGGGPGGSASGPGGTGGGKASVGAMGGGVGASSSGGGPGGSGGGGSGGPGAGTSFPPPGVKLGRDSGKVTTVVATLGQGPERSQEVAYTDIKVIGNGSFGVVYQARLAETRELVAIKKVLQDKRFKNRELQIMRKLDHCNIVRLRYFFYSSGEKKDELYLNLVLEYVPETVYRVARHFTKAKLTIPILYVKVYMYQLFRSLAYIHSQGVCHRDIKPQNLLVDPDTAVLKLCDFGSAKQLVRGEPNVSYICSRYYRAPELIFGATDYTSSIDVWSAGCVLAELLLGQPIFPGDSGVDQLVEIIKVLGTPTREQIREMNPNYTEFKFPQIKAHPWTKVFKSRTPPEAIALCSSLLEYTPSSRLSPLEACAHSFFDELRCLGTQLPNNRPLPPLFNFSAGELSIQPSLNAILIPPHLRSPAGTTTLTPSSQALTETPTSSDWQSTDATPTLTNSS
# T35 sequence (P42336 whole entry C420R): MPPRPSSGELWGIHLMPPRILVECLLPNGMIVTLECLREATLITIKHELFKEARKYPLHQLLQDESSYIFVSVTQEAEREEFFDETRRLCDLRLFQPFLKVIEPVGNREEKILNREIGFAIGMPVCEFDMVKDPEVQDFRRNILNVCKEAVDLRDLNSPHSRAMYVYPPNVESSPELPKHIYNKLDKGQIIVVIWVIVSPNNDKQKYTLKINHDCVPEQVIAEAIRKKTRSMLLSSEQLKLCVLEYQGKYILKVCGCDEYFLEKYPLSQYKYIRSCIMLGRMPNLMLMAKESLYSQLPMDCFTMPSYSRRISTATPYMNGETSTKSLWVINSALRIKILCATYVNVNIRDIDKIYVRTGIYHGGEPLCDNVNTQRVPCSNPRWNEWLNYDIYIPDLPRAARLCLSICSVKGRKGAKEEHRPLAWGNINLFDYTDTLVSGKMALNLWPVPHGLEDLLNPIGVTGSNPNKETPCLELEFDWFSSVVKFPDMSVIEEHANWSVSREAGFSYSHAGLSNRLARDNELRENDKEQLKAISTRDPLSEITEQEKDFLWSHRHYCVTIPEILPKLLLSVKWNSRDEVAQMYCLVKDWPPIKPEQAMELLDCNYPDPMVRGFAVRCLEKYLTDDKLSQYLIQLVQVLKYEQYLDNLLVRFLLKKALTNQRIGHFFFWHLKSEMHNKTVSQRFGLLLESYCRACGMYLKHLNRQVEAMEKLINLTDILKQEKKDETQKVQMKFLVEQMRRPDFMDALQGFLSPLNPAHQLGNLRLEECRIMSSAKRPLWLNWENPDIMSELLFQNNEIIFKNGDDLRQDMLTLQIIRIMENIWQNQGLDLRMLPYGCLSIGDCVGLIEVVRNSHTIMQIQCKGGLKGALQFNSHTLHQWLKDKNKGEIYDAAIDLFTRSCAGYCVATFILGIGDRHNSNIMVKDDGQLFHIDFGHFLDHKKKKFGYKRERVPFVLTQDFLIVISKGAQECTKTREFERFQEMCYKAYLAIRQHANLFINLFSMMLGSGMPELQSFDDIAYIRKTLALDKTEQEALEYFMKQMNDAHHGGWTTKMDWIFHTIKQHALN
# T5 sequence (P35626 whole entry, the tested form may be a part): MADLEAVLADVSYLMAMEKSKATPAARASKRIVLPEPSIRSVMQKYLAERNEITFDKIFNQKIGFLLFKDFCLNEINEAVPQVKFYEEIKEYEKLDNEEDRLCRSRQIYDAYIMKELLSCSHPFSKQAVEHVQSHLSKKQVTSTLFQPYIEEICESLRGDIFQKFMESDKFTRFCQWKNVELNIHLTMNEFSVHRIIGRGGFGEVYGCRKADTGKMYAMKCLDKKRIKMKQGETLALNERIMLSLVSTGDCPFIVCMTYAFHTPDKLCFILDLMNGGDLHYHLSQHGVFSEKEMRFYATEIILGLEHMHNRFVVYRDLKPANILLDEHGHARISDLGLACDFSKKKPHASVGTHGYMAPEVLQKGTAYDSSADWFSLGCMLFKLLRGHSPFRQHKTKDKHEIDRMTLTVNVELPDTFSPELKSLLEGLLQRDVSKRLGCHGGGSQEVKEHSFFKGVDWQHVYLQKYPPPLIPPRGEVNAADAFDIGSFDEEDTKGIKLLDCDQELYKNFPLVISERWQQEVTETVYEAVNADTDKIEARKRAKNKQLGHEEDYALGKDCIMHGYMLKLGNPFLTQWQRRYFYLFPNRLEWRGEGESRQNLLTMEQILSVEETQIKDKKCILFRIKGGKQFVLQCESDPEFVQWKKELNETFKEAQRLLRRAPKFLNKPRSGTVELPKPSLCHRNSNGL
# T23 sequence (Q9UIK4 whole entry): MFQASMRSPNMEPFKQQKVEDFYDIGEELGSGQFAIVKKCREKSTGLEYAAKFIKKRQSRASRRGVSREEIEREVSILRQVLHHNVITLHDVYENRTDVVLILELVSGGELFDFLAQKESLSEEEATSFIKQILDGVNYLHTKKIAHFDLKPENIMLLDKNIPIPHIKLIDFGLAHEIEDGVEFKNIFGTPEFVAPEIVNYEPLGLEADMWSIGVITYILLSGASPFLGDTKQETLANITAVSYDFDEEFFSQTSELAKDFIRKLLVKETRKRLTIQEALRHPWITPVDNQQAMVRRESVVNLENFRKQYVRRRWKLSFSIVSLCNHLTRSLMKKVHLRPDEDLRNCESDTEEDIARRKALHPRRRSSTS
# T39 sequence (Q16566 whole entry): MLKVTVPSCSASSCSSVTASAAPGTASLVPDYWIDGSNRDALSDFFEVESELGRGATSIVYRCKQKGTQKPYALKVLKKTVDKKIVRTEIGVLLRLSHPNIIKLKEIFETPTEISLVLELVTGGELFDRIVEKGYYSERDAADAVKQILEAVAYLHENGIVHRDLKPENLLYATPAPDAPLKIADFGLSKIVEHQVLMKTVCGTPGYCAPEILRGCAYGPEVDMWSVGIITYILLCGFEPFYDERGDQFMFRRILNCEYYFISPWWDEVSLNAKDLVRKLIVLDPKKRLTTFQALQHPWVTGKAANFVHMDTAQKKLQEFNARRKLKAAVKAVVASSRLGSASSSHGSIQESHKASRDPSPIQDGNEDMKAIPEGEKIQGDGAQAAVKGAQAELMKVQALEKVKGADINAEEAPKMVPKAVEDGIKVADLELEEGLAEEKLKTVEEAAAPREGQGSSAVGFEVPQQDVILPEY
# T37 sequence (Q96GD4 whole entry): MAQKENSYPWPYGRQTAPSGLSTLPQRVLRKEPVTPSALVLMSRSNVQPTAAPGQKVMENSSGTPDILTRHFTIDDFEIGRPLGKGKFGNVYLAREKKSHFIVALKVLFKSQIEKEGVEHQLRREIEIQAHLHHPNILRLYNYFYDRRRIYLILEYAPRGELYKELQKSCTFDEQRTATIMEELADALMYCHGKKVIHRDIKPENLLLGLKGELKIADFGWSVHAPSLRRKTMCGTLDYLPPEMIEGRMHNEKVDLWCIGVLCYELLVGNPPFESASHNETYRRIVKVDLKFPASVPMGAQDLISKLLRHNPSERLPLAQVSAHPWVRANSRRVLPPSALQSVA
compound,measurement,setting,value
"CC(C)c1ccc(CC(=O)N2CCN(c3ccc(C#N)nn3)CC2)cc1 [PZ-2891, 6-(4-(2-(4-isopropylphenyl)acetyl)piperazin-1-yl)pyridazine-3-carbonitrile]",remaining binding at 10 µM,DMPK,89%
same,remaining binding at 10 µM,CSF1R-autoinhibited,93%
same,remaining binding at 10 µM,MAP3K15,92%
same,remaining binding at 10 µM,PLK4,88%
same,Kd,GRK3,> 30 µM
same,remaining binding at 10 µM,BRSK2,81%
same,remaining binding at 10 µM,CLK3,93%
same,remaining binding at 10 µM,TYRO3,100%
same,remaining binding at 10 µM,NEK11,99%
same,remaining binding at 10 µM,[1],89%
same,remaining binding at 10 µM,AAK1,84%
same,remaining binding at 10 µM,TBK1,60%
same,remaining binding at 10 µM,PIK3CA(H1047Y),46%
same,remaining binding at 10 µM,TRKA,100%
same,remaining binding at 10 µM,FLT3(K663Q),88%
same,remaining binding at 10 µM,FGFR2,100%
same,remaining binding at 10 µM,EPHA8,95%
same,remaining binding at 10 µM,FLT1,100%
same,remaining binding at 10 µM,NEK9,96%
same,remaining binding at 10 µM,MST3,73%
same,remaining binding at 10 µM,IKK-epsilon,89%
same,remaining binding at 10 µM,KIT(D816V),92%
same,remaining binding at 10 µM,DAPK2,95%
same,remaining binding at 10 µM,EPHA1,95%
same,remaining binding at 10 µM,CAMK1D,95%
same,remaining binding at 10 µM,TRKB,100%
same,remaining binding at 10 µM,PIK3CB,65%
same,remaining binding at 10 µM,IRAK3,42%
same,remaining binding at 10 µM,SgK110,94%
same,remaining binding at 10 µM,MAP3K2,96%
same,remaining binding at 10 µM,KIT(V559D),81%
same,remaining binding at 10 µM,TAK1,67%
same,remaining binding at 10 µM,PKN2,94%
same,remaining binding at 10 µM,MINK,74%
same,remaining binding at 10 µM,PIK3CA(C420R),76%
same,remaining binding at 10 µM,GSK3A,83%
same,remaining binding at 10 µM,AURKB,89%
same,remaining binding at 10 µM,SNRK,85%
same,remaining binding at 10 µM,CAMK4,89%
same,remaining binding at 10 µM,LZK,89%
same,remaining binding at 10 µM,TLK1,72%
